Measurements as given in article PMC9862111, “Isolation of the Lanostane Triterpenes Pholiols L–S from Pholiota populnea and Evaluation of Their Antiproliferative and Cytotoxic Activities” (Pharmaceuticals, 2023).

Experiments:
A549 [1] = assay: Cytotoxic MTT assay, 24 h; settings: Homo sapiens, A549, 24 h, read-out: Cytotoxic activity IC50 A549 Mean
Experimental: (§2) Cell Line Cultures: The human colon adenocarcinoma cell lines, Colo 205 (ATCC-CCL-222) doxorubicin-sensitive parent and Colo320/MDR-LRP (ATCC-CCL-220.1) doxorubicin resistant expressing ABCB1, were purchased from LGC Promochem (Teddington, UK). The cells were cultured in RPMI-1640 medium supplemented with 10% heat-inactivated fetal bovine serum (FBS), 2 mM L-glutamine, 1 mM Na-pyruvate, 100 mM HEPES. The MRC-5 (ATCC CCL-171) human embryonic lung fibroblast cell line and the hormone-responsive breast cancer cell line MCF-7 (ATCC HTB-22) were purchased from Sigma-Aldrich (Merck KGaA, Darmstadt, Germany). The MCF-7 and MRC-5 cells were cultured in Eagle’s Minimal Essential Medium (EMEM) containing 4.5 g/L of glucose and supplemented with a non-essential amino acid mixture, a selection of vitamins, and 10% FBS. The cell lines were incubated at 37 °C, 5% CO2, and 95% air atmosphere. The cells were detached with Trypsin-Versene (EDTA) solution for 5 min at 37 °C. The human non-small cell lung cancer cell line A549 was kindly provided by Brigitte Marian (Institute of Cancer Research, Department of Medicine I, Medical University of Vienna, Austria). A549 cells were grown in Eagle’s Minimal Essential Medium (EMEM) supplemented with 10% heat-inactivated fetal bovine serum.
(§3) Assay for Cytotoxic Effect: The effects of increasing concentrations of the compounds on cell growth were tested in 96-well flat-bottomed microtiter plates, as described for the antiproliferative assay, using 1 × 10^4 cells/well. The culture plates were incubated at 37 °C for 24 h; at the end of the incubation period, 20 μL of MTT solution (from a 5 mg/mL stock solution) was added to each well. After incubation at 37 °C for 4 h, 100 μL of sodium dodecyl sulfate (SDS) solution (10% SDS in 0.01 M HCl) was added to each well, and the plates were further incubated at 37 °C overnight. Cell growth was determined by measuring the optical density (OD) at 540 nm (ref 630 nm) with a Multiscan EX ELISA reader (Thermo Labsystems, Cheshire, WA, USA).
(§4) Sample preparation: The compounds were dissolved in DMSO to achieve the final concentration of 5 mM. The starting concentration of the compounds was 100 µM and 2-fold serial dilutions were prepared for the antiproliferative and cytotoxic assays. The following concentrations were used: 100-50-25-12.5-6.25-3.125-1.56-0.78-0.39-0.195 µM.

Colo 205 [2] = assay: Antiproliferative MTT assay, 72 h; type: cell-based, human; settings: for IC50: MTT, 72 h, 6 × 10^3 cells/well, sensitive colon adenocarcinoma; for Selectivity index (SI), Colo 205: antiproliferative assay, Colo 205 versus non-cancerous MRC-5
Experimental: (§1) Antiproliferative Assays: The antiproliferative effect of the compounds was tested in decreasing serial dilutions of compounds (starting with 100 µM, then two-fold serial dilution) on human cell lines (Colo 205, Colo 320, MCF-7, A549, and MRC-5) in 96-well flat-bottomed microtiter plates. Firstly, the compounds were diluted in 100 µL of the medium, and then, 6 × 10^3 cells (Colo 205, Colo 320) in 100 µL of RPMI medium were added to each well, excluding the medium control wells. The adherent MCF-7, A549, and MRC-5 cells (6 × 10^3 cells/well) were seeded in EMEM medium for at least 4 h before the assay. The two-fold serial dilutions of the compounds were made in a separate plate (100–0.19 μM) and then transferred to the plates containing the adherent-corresponding cell line. […] The percentage of inhibition of cell growth was determined according to Equation (1), and expressed as IC50 values, defined as the concentration that induces 50% growth inhibition. IC50 values and the standard deviation (SD) of triplicate experiments were calculated using GraphPad Prism 5 software for Windows. Doxorubicin (2 mg/mL, Teva Pharmaceuticals, Budapest, Hungary) was used as a positive control and the vehicle DMSO as the negative control (Table 3). (1) […][ODsample−ODmedium control/ODcell control−ODmedium control]×100

MCF-7 [3] = assay: Antiproliferative MTT assay, 72 h; type: cell-based, human; settings: for IC50: Homo sapiens, MCF7, MTT, 72 h, 6 × 10^3 cells/well, breast cancer; for Selectivity index (SI), MCF-7: antiproliferative assay, MCF-7 versus non-cancerous MRC-5
Experimental: as §1

Colo 205 [4] = assay: Cytotoxic MTT assay, 24 h; settings: Homo sapiens, COLO 205, 24 h, read-out: Cytotoxic activity IC50 Colo 205 (A) Mean
Experimental: as §2, §3, §4

MRC-5 = assay: Antiproliferative MTT assay, 72 h; type: cell-based; settings: Homo sapiens, MRC5, 6 × 10^3 cells/well, normal embryonic lung fibroblast
Experimental: as §1

A549 [5] = assay: Antiproliferative MTT assay, 72 h; type: cell-based; settings: Homo sapiens, 6 × 10^3 cells/well, non-small cell lung cancer
Experimental: as §1

Colo 320 [6] = assay: Antiproliferative MTT assay, 72 h; type: cell-based; settings: Homo sapiens, 6 × 10^3 cells/well, resistant colon adenocarcinoma
Experimental: as §1

[7] = Cytotoxic MTT assay, 24 h; settings: human, MRC-5 embryonic lung fibroblast cells
Experimental: as §2, §3, §4

MCF-7 [8] = assay: Cytotoxic MTT assay, 24 h; settings: Homo sapiens, MCF7, 24 h, read-out: Cytotoxic activity IC50 MCF-7 Mean
Experimental: as §2, §3, §4

Colo 320 [9] = assay: Cytotoxic MTT assay, 24 h; settings: for IC50: Homo sapiens, COLO 320, 24 h, read-out: Cytotoxic activity IC50 Colo 320 (B) Mean; for RR (relative resistance ratio) (B/A): IC50 resistant (Colo 320)/IC50 sensitive (Colo 205), cytotoxic assay
Experimental: as §2, §3, §4

Colo 320 cells = test system: Colo 320 cells; design: method as in PMID 35293752; settings: checkerboard method; cited from earlier work
in vitro = settings: human
Experimental: as §2, §3, §4

treated cancer cells = assay: Antiproliferative MTT assay, summary over cancer cell lines; type: cell-based, human; settings: versus MRC-5
Experimental: as §1

MCF-7 [10] = test system: MCF-7
Experimental: as §2, §3, §4

[11] = test system: p-glycoprotein (ABCB1) efflux pump; design: method as in PMID 35293752; settings: resistant Colo 320 cells; cited from earlier work
COX-2 = test system: COX-2; design: method as in PMID 36279964; settings: read-out: IC50 against COX-2; cited from earlier work
5-LOX = test system: 5-LOX; design: method as in PMID 36279964; settings: read-out: IC50 against 5-LOX; cited from earlier work
[12] = test system: sensitive (Colo 205) colon adenocarcinoma cells; design: method as in PMID 35293752; settings: read-out: Cytotoxic activity IC50 Colo 205; cited from earlier work
[13] = test system: resistant colon adenocarcinoma cells (Colo 320); design: method as in PMID 35293752; settings: read-out: Cytotoxic activity IC50 Colo 320; cited from earlier work

COc1cccc2c1C(=O)c1c(O)c3c(c(O)c1C2=O)C[C@@](O)(C(=O)CO)C[C@@H]3O[C@H]1C[C@H](N)[C@H](O)[C@H](C)O1 [Dox, doxorubicin, reference compound]
IC50 (A549 [1]): 10.2 µM
IC50 (Colo 205 [2]; Homo sapiens, COLO 205, 72 h): 0.0617 µM
IC50 (MCF-7 [3]): 0.155 µM
IC50 (Colo 205 [4]): 3.32 µM
IC50 (MRC-5): 0.52 µM
IC50 (A549 [5]): 1.04 µM
IC50 (Colo 320 [6]): 0.25 µM
IC50 at 24 h [7]: 3.6 µM
IC50 (MCF-7 [8]): 5.73 µM
IC50 (Colo 320 [9]): 12 µM
RR (relative resistance ratio) (B/A) (Colo 320 [9]): 3.60

COC(=O)C[C@@](C)(O)CC(=O)O[C@@H]1C[C@]2(C)C3=C(CC[C@H]2C(C)(C)[C@H]1OC(C)=O)[C@]1(C)CC[C@H]([C@H](C)CCC(=O)C(C)(C)O)[C@@]1(C)[C@H](O)C3 [pholiol D]
Drug interaction with doxorubicin (Colo 320 cells): interacted in a synergistic manner

COC(=O)CC(C)(O)CC(=O)OC1C(O)CC2(C)C3=C(C(=O)CC2C1(C)C)C1(C)CCC(C(C)CCC(=O)C(C)(C)O)C1(C)CC3 (stereo not drawn) [Compound 1, pholiol L]
IC50 (A549 [1]): 93.6 µM
IC50 (Colo 205 [2]; Homo sapiens, COLO 205, 72 h): 32.4 µM
IC50 (MCF-7 [3]): 21.7 µM
IC50 (Colo 205 [4]): 40.3 µM
IC50 (MRC-5): 70.9 µM
IC50 (A549 [5]): 53.7 µM
IC50 (Colo 320 [6]): 28.1 µM
IC50 (MCF-7 [8]): 43.7 µM
IC50 at 24 h (in vitro): 66.1 µM
IC50 (Colo 320 [9]): 33.9 µM
RR (relative resistance ratio) (B/A) (Colo 320 [9]): 0.84
Selectivity to cancerous cell lines over normal cells (treated cancer cells): did not display selectivity

COC(=O)CC(C)(O)CC(=O)OC1CC2(C)C3=C(C(=O)CC2C(C)(C)C1OC(C)=O)C1(C)CCC(C(C)CCC(=O)C(C)(C)O)C1(C)CC3O (stereo not drawn) [Compound 2, pholiol M]
IC50 (A549 [1]): 58.1 µM
IC50 (Colo 205 [2]; Homo sapiens, COLO 205, 72 h): 23.9 µM
Selectivity index (SI), Colo 205 (Colo 205 [2]): > 4.18
IC50 (MCF-7 [3]): 2.48 µM
Selectivity index (SI), MCF-7 (MCF-7 [3]): > 40
IC50 (Colo 205 [4]): 35.9 µM
IC50 (MRC-5): > 100 µM
IC50 (A549 [5]): > 100 µM
IC50 (Colo 320 [6]): 32.5 µM
IC50 (MCF-7 [8]): > 100 µM
IC50 at 24 h (in vitro): > 100 µM
IC50 (Colo 320 [9]): 67.2 µM
RR (relative resistance ratio) (B/A) (Colo 320 [9]): 1.87
Cytotoxic activity IC50 MCF-7 Mean (MCF-7 [10]): did not show a cytotoxic effect

COC(=O)C[C@@](C)(O)CC(=O)O[C@@H]1C[C@]2(C)C3=C(C(=O)C[C@H]2C(C)(C)[C@H]1OC(C)=O)[C@]1(C)CC[C@H]([C@H](C)CCC(=O)C(C)(C)O)[C@@]1(C)CC3 [pholiol B]
Drug interaction with doxorubicin (Colo 320 cells): interacted in a synergistic manner
p-glycoprotein (ABCB1) efflux pump inhibitory activity [11]: inhibitory activity was found

Pholiol F
IC50 (COX-2): 440 µM
IC50 (5-LOX): 194 µM

pholiol A
p-glycoprotein (ABCB1) efflux pump inhibitory activity [11]: inhibitory activity was found

COC(=O)C[C@@](C)(O)CC(=O)O[C@@H]1C[C@]2(C)C3=C(C(=O)C[C@H]2C(C)(C)[C@H]1OC(C)=O)[C@]1(C)CC[C@H]([C@H](C)CCC(=O)C(C)(C)O)[C@@]1(C)CC3=O [Compound 4, pholiol O]
IC50 (A549 [1]): 56.9 µM
IC50 (Colo 205 [2]; Homo sapiens, COLO 205, 72 h): 23.3 µM
IC50 (Colo 205 [2]): 23.4 µM
Selectivity index (SI), Colo 205 (Colo 205 [2]): 1.8
IC50 (MCF-7 [3]): 9.95 µM
Selectivity index (SI), MCF-7 (MCF-7 [3]): 4.3
IC50 (Colo 205 [4]): 31.5 µM
IC50 (MRC-5): 42.9 µM
IC50 (A549 [5]): 51.5 µM
IC50 (Colo 320 [6]): 42.1 µM
IC50 (MCF-7 [8]): > 100 µM
IC50 at 24 h (in vitro): 58 µM
IC50 (Colo 320 [9]): 91.5 µM
RR (relative resistance ratio) (B/A) (Colo 320 [9]): 2.90
Cytotoxic activity IC50 MCF-7 Mean (MCF-7 [10]): did not show a cytotoxic effect

COC(=O)C[C@@](C)(O)CC(=O)O[C@@H]1C[C@]2(C)C3=C(C(=O)C[C@H]2C(C)(C)[C@H]1OC(C)=O)[C@]1(C)CC[C@H]([C@H](C)CCC(=O)O)[C@@]1(C)CC3 [Compound 8, pholiol S]
IC50 (A549 [1]): 83.7 µM
IC50 (Colo 205 [2]; Homo sapiens, COLO 205, 72 h): 59.9 µM
IC50 (MCF-7 [3]): 35.3 µM
IC50 (Colo 205 [4]): 57.5 µM
IC50 (MRC-5): > 100 µM
IC50 (A549 [5]): 89.8 µM
IC50 (Colo 320 [6]): 68.5 µM
IC50 (MCF-7 [8]): 43 µM
IC50 at 24 h (in vitro): 55.3 µM
IC50 (Colo 320 [9]): 57.5 µM
RR (relative resistance ratio) (B/A) (Colo 320 [9]): 1.0
Selectivity to cancerous cell lines over normal cells (treated cancer cells): did not display selectivity

CC(C)[C@@H](C)/C=C/[C@@H](C)[C@H]1CC[C@H]2C3=CC=C4C[C@@H](O)CC[C@]4(C)[C@H]3CC[C@]12C [Ergosterol]
IC50 [12]: 4.9 µM
IC50 [13]: 6.5 µM

CC(=O)O[C@H]1[C@H](OC(=O)C[C@](C)(O)CC(=O)O)C[C@]2(C)C3=CC[C@]4(C)[C@@H]([C@H](C)CCC(=O)C(C)(C)O)CC[C@@]4(C)C3=CC[C@H]2C1(C)C [Compound 6, pholiol Q]
IC50 (A549 [1]): 85.9 µM
IC50 (Colo 205 [2]; Homo sapiens, COLO 205, 72 h): 50 µM
IC50 (MCF-7 [3]): 46.3 µM
IC50 (Colo 205 [4]): 56.1 µM
IC50 (MRC-5): > 100 µM
IC50 (A549 [5]): 51.2 µM
IC50 (Colo 320 [6]): 69.2 µM
IC50 (MCF-7 [8]): 43.8 µM
IC50 at 24 h (in vitro): > 100 µM
IC50 (Colo 320 [9]): 34.7 µM
RR (relative resistance ratio) (B/A) (Colo 320 [9]): 0.62
Selectivity to cancerous cell lines over normal cells (treated cancer cells): did not display selectivity
